Data taken from the supplement of paper PMC10307832.

Legend:
Assay in all cases: relative viability (nuclei count vs DMSO), 5 days (fraction); higher = more cells survive
Vandetanib + Crizotinib = compound: COc1cc2/c(=N/c3ccc(Br)cc3F)nc[nH]c2cc1OCC1CCN(C)CC1 [Vandetanib] + C[C@@H](Oc1cc(-c2cnn(C3CCNCC3)c2)cnc1N)c1c(Cl)ccc(F)c1Cl [Crizotinib] (partner 1 µM)
Method in brief: (§1)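 Medians of duplicate plates are given as relative viability. That measure is the nuclei count in treated wells divided by the count in vehicle wells. Counts were taken on 4× images of lung cancer cell lines in 1536-well plates, 5 days after pin-tool dosing the day after seeding with one drug alone or a fixed anchor-drug dose plus five library-drug doses (not always all listed) in √10 steps.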

CUDC-101 + Trametinib = compound: C#Cc1cccc(Nc2ncnc3cc(OC)c(OCCCCCCC(=O)NO)cc23)c1 [CUDC-101] + CC(=O)Nc1cccc(-n2c(=O)n(C3CC3)c(=O)c3c(Nc4ccc(I)cc4F)n(C)c(=O)c(C)c32)c1 [Trametinib] (partner 0.02 µM)
Method in brief: as §1

NVP-TAE684 + Phenformin = compound: COc1cc(N2CCC(N3CCN(C)CC3)CC2)ccc1Nc1ncc(Cl)c(Nc2ccccc2S(=O)(=O)C(C)C)n1 [NVP-TAE684] + N=C(N)NC(=N)NCCc1ccccc1 [Phenformin] (partner 250 µM)
Method in brief: as §1

CUDC-101 + Foretinib = compound: C#Cc1cccc(Nc2ncnc3cc(OC)c(OCCCCCCC(=O)NO)cc23)c1 [CUDC-101] + COc1cc2c(Oc3ccc(NC(=O)C4(C(=O)Nc5ccc(F)cc5)CC4)cc3F)ccnc2cc1OCCCN1CCOCC1 [Foretinib] (partner 0.25 µM)
Method in brief: as §1

Row | Cell Line | relative viability (Vandetanib + Crizotinib; first compound 0.02 µM) | relative viability (Vandetanib + Crizotinib; first compound 0.06325 µM) | relative viability (Vandetanib + Crizotinib; first compound 0.2 µM) | relative viability (Vandetanib + Crizotinib; first compound 0.6325 µM) | relative viability (Vandetanib + Crizotinib; first compound 2 µM) | relative viability (CUDC-101 + Trametinib; first compound 0.01 µM) | relative viability (CUDC-101 + Trametinib; first compound 0.03162 µM) | relative viability (CUDC-101 + Trametinib; first compound 0.1 µM) | relative viability (CUDC-101 + Trametinib; first compound 0.3162 µM) | relative viability (CUDC-101 + Trametinib; first compound 1 µM) | relative viability (NVP-TAE684 + Phenformin; first compound 0.2 µM) | relative viability (NVP-TAE684 + Phenformin; first compound 0.6325 µM) | relative viability (NVP-TAE684 + Phenformin; first compound 2 µM) | relative viability (CUDC-101 + Foretinib; first compound 0.01 µM) | relative viability (CUDC-101 + Foretinib; first compound 0.03162 µM) | relative viability (CUDC-101 + Foretinib; first compound 0.1 µM) | relative viability (CUDC-101 + Foretinib; first compound 0.3162 µM) | relative viability (CUDC-101 + Foretinib; first compound 1 µM)
1 | NCI-H2085 | 0.807 | 0.841 | 0.932 | 0.937 | 0.875 | 0.607 | 0.496 | 0.706 | 0.604 | 0.505 | 0.753 | 0.694 | 0.694 | 0.964 | 0.929 | 0.823 | 0.996 | 0.697
2 | LCLC-97TM1 | 0.32 | 0.342 | 0.232 | 0.459 | 0.441 | 0.175 | 0.193 | 0.223 | 0.227 | 0.164 | 0.4 | 0.382 | 0.113 | 0.844 | 0.824 | 0.962 | 0.829 | 0.666
3 | NCI-H596 | 0.907 | 0.872 | 1.2 | 1.12 | 0.81 | 0.817 | 0.776 | 0.848 | 0.874 | 0.801 | 0.709 | 0.656 | 0.579 | 0.862 | 0.902 | 0.787 | 0.752 | 0.729
4 | NCI-H2228 | 0.446 | 0.473 |  | 0.484 | 0.479 | 0.553 | 0.467 | 0.486 | 0.912 | 0.537 | 0.23 | 0.158 | 0.113 | 0.763 | 0.939 | 1.11 | 0.964 | 0.719
5 | PC-14 | 0.94 | 0.853 | 0.897 | 0.386 | 0.231 | 0.928 | 0.605 | 0.619 | 0.233 | 0.0423 | 0.505 | 0.488 | 0.537 | 0.939 | 0.745 | 0.495 | 0.628 | 0.21
6 | H3255 | 0.882 | 0.847 | 0.739 | 0.519 | 0.208 | 0.596 | 0.536 |  | 0.445 | 0.209 | 0.348 | 0.397 | 0.453 | 0.864 | 0.917 |  | 0.486 | 0.279
7 | NCI-H441 | 0.926 | 0.751 | 0.687 | 0.88 | 0.856 | 0.639 | 0.439 | 0.371 | 0.65 | 0.41 | 0.574 | 0.755 | 0.258 | 0.976 | 1.23 | 1.05 | 0.978 | 0.937
8 | LK-2 | 0.217 | 0.222 | 0.225 | 0.219 | 0.233 | 0.715 | 0.625 | 0.884 | 0.592 | 0.392 | 0.364 | 0.238 | 0.233 | 1.23 | 1.19 | 0.957 | 0.819 | 0.554
9 | SW 1573 | 0.896 | 0.704 | 0.7 | 0.815 | 0.849 | 0.638 | 0.5 | 0.599 | 0.592 | 0.392 | 0.307 | 0.249 | 0.128 | 1.02 | 1.03 | 1.08 | 0.862 | 0.611
10 | LU99A | 0.546 | 0.498 | 0.63 | 0.522 | 0.577 | 0.444 | 0.539 | 0.617 | 0.535 | 0.374 | 0.912 | 0.886 | 0.659 | 0.931 | 0.881 | 0.684 | 0.798 | 0.388
11 | NCI-H322M | 0.899 | 0.952 | 0.937 | 0.88 | 0.897 | 0.507 | 0.477 | 0.517 | 0.44 | 0.411 | 0.731 | 0.705 | 0.52 | 0.833 | 0.706 | 0.834 | 0.703 | 0.503
12 | COR-L23 | 0.698 | 0.623 | 0.114 | 0.671 | 0.729 | 0.641 | 0.548 | 0.74 | 0.574 | 0.332 | 0.329 | 0.406 | 0.201 | 1.12 | 0.947 | 0.924 | 0.96 | 0.494
13 | HARA | 1.04 | 1.02 | 1.01 | 0.998 | 0.956 | 0.417 | 0.487 |  | 0.356 | 0.235 | 0.397 | 0.394 | 0.304 | 0.903 | 0.78 | 0.853 | 0.611 | 0.285
14 | LXF-289 | 0.801 | 0.789 | 0.827 | 0.828 | 0.792 | 0.689 | 0.671 | 0.659 | 0.605 | 0.539 | 0.555 | 0.52 | 0.443 | 0.972 | 0.932 | 0.937 | 0.877 | 0.497
15 | 201T | 1 | 1.03 | 0.978 | 0.95 | 0.969 | 0.734 | 0.711 | 0.714 | 0.69 | 0.701 | 0.421 | 0.437 | 0.38 | 1.11 | 0.835 | 1.03 | 1.28 | 0.936
16 | LCLC-103H | 1.03 | 1.01 | 1.12 | 1.05 | 1 | 0.666 | 0.66 | 0.662 | 0.707 | 0.681 | 0.297 | 0.356 | 0.276 | 0.753 | 0.854 | 0.808 | 0.751 | 0.513
17 | NCI-H520 | 0.923 | 0.894 | 0.859 | 0.772 | 0.655 | 0.572 | 0.688 | 0.788 | 0.674 | 0.251 | 0.553 | 0.451 | 0.242 | 0.961 | 0.746 | 0.804 | 0.752 | 0.509
18 | RERF-LC-KJ | 0.83 | 0.789 | 0.871 | 0.883 | 0.794 | 0.908 | 0.955 | 0.865 | 0.775 | 0.672 | 0.394 | 0.334 | 0.257 | 0.884 | 0.889 | 0.791 | 0.812 | 0.644
